Assay results: ChEMBL document CHEMBL1201862, “PubChem BioAssay data set” (2004)
Activity calls are given as the source filed them.

Columns and labels:
[1] = target: Heat shock protein HSP 90-alpha (Homo sapiens, UniProt P07900); type: functional, organism-based
[2] = Luminescence Cell-Based Dose Retest to Confirm Inhibitors of Cancer Stem Cells. [Related pubchem assays (depositor defined):AID2717, AID2721]; type: functional; settings: Homo sapiens
Fatty acid synthase [3] = target: T1, Fatty acid synthase (Homo sapiens, UniProt P49327); assay: inhibition of human FAS-TE enzyme activity – biochemical, kinetic fluorescence intensity, dose response (AID 624326); type: functional;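 note: rate of fluorescence rise from hydrolysis of a fluorogenic O-methyl fluorescein ester substrate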
Fatty acid synthase [4] = target: T1, Fatty acid synthase; assay: inhibition of human FAS-TE enzyme activity – biochemical, endpoint fluorescence intensity, uHTS hits, dose response (AID 624327); type: functional;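 note: fluorescence from hydrolysis of an O-methyl fluorescein acyl ester substrate by the enzyme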
[5] = target: Voltage-dependent T-type calcium channel subunit alpha-1H (Homo sapiens, UniProt O95180); type: functional;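 note: channel activity triggered by adding a high calcium stimulation buffer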
Protein skinhead-1 = target: T2, Protein skinhead-1 (Caenorhabditis elegans, UniProt P34707); type: functional
T2 sequence (P34707 whole entry): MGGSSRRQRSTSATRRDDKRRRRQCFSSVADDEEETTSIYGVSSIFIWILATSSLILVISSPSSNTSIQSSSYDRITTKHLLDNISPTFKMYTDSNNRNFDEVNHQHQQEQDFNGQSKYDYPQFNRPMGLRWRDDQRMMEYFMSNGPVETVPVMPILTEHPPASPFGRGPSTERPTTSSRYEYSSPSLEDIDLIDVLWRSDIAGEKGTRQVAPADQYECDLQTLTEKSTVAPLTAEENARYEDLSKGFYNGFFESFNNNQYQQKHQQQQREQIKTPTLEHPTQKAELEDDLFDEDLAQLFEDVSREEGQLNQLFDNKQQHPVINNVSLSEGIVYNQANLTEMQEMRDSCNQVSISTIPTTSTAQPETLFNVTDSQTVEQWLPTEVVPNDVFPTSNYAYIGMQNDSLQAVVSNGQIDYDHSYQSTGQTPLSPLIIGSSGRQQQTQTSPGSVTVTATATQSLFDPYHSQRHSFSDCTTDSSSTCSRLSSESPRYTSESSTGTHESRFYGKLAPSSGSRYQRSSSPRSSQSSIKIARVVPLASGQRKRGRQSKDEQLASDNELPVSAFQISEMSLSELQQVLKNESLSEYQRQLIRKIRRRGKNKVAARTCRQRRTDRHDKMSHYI

[6] = target: T3, Corticotropin-releasing factor receptor 2/Corticotropin-releasing factor-binding protein (Homo sapiens, UniProt P24387+Q13324); assay: activators of CRF receptor 2 with binding protein – uHTS hits, confirmation (AID 602473); type: functional; settings: read-out: EC50_Mean
T3 sequence (Q13324 whole entry): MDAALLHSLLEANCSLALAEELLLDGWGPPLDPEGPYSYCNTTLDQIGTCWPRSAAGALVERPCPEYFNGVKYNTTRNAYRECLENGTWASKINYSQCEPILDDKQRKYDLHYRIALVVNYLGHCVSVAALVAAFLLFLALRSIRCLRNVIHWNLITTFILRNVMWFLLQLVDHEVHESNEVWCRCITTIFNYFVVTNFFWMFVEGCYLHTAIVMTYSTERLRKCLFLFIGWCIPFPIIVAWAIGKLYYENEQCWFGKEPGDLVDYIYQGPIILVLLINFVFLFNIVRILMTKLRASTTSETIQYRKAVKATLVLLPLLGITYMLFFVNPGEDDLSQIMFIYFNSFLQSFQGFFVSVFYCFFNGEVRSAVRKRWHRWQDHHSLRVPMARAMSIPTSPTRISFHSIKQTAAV
T3 sequence (P24387 whole entry): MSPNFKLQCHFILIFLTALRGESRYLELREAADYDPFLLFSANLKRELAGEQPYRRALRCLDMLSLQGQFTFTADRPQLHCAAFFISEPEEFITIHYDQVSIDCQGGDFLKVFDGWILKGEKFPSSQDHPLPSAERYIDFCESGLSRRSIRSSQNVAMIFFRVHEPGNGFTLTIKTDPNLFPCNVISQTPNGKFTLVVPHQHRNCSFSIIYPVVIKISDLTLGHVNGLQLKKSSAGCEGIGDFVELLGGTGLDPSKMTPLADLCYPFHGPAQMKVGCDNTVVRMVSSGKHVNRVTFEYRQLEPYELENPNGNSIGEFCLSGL

[7] = target: T4, Rac GTPase-activating protein 1 (Homo sapiens, UniProt Q9H0H5); assay: blockers of MgcRacGAP-driven Rac1 GTP hydrolysis – biochemical, ADP Hunter fluorescence, primary and confirmatory, confirmation (AID 624330); type: functional
T4 sequence (Q9H0H5 whole entry): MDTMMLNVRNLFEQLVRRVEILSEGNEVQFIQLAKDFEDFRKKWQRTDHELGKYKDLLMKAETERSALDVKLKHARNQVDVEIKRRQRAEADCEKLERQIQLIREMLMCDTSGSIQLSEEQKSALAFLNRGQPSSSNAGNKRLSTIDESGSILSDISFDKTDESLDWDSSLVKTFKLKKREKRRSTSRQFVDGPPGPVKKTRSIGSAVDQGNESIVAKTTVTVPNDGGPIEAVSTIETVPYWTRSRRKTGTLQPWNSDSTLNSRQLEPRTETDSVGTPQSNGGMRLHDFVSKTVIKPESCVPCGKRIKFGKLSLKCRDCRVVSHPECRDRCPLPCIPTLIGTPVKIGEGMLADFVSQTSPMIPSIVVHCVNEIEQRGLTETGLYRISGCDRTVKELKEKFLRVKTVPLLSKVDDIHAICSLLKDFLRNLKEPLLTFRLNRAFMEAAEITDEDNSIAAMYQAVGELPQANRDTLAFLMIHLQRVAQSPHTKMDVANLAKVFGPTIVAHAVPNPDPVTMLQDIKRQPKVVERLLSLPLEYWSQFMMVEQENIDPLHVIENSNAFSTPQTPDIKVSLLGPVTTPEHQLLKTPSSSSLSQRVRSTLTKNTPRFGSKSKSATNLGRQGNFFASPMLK

Coagulation factor XII = target: T5, Coagulation factor XII (Homo sapiens, UniProt P00748); type: functional;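 note: activated factor XIIa alpha cleaving a fluorogenic AMC peptide substrate; inhibitor potency from loss of enzyme activity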
T5 sequence (P00748 whole entry): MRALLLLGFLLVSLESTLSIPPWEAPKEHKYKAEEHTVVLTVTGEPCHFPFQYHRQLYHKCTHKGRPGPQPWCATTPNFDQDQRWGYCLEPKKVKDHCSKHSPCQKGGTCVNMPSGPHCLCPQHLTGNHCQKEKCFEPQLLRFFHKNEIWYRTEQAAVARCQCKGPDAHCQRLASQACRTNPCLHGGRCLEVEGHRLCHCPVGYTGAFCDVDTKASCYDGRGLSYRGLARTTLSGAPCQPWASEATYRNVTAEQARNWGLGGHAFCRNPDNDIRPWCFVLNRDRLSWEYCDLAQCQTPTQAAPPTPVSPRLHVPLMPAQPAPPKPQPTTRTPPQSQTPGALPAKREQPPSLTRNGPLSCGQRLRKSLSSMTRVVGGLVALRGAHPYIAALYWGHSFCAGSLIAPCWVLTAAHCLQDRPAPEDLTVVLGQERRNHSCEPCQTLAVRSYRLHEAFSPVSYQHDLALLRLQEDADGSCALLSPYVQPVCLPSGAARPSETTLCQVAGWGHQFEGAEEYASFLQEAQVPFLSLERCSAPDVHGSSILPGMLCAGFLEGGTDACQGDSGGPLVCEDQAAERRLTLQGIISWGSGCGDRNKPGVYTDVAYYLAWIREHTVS

[8] = target: T6, High affinity choline transporter 1 (Homo sapiens, UniProt Q9GZV3); assay: human choline transporter blockers, potency – cell-based, 5-point CRC, membrane potential dye, dose response (AID 504840); type: functional
T6 sequence (Q9GZV3 whole entry): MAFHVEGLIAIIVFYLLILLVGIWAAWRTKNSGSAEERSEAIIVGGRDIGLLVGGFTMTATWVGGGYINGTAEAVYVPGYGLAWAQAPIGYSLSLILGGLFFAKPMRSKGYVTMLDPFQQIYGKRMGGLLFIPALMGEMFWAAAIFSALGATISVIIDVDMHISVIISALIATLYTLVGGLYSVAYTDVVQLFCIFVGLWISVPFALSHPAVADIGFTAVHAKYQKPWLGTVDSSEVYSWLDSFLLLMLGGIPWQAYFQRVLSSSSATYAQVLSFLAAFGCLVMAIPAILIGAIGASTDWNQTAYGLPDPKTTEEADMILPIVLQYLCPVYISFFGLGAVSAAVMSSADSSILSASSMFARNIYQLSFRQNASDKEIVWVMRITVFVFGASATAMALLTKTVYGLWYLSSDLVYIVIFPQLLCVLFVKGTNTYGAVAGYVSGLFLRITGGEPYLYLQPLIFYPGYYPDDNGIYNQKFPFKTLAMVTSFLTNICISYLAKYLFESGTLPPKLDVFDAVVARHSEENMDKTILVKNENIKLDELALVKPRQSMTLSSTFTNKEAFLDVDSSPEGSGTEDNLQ

[9] = target: T7, Carboxy-terminal domain RNA polymerase II polypeptide A small phosphatase 1 (Homo sapiens, UniProt Q9GZU7); assay: CTDSP1 inhibitors, concentration-response, biochemical, absorbance readout, ultra-high-throughput screen actives (AID 540297); type: functional
T7 sequence (Q9GZU7 whole entry): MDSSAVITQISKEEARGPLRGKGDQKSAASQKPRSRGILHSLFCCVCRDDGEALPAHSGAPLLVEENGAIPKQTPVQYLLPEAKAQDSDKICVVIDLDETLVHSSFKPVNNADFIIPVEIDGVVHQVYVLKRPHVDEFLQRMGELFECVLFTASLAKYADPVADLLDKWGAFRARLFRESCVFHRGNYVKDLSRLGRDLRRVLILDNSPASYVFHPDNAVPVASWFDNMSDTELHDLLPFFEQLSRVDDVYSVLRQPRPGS

Voltage-dependent T-type calcium channel subunit alpha-1H, sequence (O95180 whole entry): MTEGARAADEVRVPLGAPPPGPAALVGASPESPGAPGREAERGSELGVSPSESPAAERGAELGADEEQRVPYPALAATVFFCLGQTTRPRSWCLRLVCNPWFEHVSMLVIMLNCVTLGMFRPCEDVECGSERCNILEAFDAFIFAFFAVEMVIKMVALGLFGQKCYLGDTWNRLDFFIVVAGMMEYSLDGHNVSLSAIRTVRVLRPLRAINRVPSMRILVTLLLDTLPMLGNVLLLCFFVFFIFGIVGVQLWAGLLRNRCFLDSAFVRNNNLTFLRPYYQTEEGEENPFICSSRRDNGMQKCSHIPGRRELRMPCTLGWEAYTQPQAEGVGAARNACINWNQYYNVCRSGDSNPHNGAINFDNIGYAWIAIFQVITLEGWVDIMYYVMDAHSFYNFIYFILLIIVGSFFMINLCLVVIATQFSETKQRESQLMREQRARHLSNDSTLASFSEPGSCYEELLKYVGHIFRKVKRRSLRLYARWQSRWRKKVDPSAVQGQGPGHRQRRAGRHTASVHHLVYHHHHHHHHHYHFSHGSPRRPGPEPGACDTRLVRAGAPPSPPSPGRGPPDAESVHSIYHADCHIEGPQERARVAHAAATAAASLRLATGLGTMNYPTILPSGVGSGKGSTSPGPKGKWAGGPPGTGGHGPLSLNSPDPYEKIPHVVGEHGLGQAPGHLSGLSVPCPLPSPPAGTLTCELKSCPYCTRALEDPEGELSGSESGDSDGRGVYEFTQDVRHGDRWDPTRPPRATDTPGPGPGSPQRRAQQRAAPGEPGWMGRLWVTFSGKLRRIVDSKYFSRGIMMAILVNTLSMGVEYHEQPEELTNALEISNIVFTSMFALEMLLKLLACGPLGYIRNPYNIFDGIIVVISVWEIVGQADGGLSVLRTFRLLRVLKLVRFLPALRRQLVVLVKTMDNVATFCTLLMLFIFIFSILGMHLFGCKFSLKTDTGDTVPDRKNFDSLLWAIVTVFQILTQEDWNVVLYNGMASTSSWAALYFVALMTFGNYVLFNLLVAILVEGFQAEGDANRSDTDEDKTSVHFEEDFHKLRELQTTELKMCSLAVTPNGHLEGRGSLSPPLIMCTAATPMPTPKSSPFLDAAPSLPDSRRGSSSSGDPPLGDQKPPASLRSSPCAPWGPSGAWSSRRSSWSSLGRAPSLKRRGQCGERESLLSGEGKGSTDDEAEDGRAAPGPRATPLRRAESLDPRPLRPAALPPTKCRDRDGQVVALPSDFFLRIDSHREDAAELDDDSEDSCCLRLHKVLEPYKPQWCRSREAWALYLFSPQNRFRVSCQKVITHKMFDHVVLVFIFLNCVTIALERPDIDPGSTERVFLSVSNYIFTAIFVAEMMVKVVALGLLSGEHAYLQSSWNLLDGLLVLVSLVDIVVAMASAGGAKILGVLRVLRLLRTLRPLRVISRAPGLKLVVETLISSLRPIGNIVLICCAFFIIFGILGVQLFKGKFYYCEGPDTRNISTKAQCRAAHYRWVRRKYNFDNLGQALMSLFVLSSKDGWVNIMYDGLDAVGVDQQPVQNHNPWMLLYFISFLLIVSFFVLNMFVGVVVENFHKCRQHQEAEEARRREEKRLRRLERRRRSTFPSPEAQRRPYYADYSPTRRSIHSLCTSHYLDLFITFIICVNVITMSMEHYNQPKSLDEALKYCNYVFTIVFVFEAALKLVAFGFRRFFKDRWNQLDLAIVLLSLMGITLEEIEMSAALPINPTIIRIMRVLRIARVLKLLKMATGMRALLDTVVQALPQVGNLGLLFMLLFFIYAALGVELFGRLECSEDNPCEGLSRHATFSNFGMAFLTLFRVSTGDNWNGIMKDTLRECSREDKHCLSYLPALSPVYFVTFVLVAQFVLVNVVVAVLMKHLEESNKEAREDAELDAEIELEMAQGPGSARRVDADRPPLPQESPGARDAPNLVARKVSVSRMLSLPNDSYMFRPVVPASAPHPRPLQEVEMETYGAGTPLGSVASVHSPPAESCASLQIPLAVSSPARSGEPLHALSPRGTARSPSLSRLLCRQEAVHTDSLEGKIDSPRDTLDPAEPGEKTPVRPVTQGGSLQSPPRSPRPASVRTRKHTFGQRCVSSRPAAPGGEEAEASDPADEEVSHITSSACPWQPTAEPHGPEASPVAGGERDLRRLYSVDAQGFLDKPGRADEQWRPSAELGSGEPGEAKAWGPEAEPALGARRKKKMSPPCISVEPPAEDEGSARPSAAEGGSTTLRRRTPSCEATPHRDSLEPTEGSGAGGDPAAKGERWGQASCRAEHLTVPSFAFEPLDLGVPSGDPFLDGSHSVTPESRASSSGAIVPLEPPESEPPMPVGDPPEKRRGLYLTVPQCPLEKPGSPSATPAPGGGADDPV
T1 sequence (P49327 whole entry): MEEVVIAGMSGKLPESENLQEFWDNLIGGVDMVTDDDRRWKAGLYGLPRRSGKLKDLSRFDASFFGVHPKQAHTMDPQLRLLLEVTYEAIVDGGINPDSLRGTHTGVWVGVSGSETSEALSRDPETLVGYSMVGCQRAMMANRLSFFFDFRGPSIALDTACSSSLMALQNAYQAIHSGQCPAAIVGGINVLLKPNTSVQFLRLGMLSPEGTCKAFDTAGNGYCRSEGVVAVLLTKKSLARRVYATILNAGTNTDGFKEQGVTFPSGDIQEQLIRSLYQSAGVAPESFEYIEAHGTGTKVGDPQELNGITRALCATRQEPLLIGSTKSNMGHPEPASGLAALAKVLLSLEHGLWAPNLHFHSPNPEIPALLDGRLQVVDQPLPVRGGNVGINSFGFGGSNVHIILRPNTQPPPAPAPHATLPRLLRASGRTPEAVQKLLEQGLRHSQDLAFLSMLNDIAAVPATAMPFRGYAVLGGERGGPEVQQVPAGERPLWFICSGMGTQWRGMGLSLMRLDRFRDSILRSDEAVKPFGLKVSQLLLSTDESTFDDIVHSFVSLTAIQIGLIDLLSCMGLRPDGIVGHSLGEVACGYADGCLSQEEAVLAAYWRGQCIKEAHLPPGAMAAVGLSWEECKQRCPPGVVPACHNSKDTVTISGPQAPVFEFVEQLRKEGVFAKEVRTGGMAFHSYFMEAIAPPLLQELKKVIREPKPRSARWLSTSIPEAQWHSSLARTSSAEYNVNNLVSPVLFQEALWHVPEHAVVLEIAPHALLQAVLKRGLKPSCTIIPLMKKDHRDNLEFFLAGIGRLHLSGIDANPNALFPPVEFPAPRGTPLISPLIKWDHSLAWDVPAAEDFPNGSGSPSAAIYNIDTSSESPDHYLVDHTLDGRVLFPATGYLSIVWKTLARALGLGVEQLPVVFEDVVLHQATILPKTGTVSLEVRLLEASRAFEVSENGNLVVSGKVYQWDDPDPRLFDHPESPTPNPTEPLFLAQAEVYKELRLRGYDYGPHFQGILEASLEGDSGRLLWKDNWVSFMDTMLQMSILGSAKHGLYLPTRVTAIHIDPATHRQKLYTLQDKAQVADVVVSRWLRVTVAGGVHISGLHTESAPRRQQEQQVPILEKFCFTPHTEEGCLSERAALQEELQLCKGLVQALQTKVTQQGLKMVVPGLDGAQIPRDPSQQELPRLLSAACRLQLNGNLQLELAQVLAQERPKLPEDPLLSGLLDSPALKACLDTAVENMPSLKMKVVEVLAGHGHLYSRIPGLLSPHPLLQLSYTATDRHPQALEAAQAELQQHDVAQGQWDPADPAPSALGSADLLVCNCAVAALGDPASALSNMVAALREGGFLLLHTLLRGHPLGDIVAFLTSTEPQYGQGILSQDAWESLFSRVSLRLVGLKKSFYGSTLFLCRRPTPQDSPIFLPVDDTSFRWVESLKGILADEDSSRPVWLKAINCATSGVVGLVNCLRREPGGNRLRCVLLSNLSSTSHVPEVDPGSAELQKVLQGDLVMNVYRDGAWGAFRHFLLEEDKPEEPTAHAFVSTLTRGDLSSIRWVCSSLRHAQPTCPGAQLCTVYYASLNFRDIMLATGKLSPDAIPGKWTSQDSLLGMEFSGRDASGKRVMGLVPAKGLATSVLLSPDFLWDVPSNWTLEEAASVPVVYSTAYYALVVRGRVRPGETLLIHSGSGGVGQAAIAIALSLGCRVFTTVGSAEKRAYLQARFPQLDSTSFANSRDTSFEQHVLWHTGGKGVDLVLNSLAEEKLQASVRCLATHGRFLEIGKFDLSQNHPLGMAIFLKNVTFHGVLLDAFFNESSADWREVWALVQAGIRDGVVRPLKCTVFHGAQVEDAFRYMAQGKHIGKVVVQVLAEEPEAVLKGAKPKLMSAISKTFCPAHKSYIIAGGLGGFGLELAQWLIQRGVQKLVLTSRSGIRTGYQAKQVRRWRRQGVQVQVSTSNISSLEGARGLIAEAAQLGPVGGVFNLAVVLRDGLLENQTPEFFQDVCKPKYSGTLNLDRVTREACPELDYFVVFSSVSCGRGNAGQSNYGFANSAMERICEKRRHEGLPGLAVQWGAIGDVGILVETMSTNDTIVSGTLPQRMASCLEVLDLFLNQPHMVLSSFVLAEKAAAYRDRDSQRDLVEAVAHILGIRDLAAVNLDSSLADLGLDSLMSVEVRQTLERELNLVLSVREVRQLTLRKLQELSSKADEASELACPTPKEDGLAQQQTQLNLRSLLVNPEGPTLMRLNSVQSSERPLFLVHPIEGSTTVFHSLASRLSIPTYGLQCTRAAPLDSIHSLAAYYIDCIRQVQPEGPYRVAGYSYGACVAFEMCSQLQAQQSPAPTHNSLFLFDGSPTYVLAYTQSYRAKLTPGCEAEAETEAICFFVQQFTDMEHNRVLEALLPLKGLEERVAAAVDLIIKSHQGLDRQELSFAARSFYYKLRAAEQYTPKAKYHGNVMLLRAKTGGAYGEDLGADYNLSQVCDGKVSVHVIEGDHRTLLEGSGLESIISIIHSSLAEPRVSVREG

COc1ccc(-c2sc3ccccc3c2/C=C/c2ccncc2)cc1
AC50 [1]: 3.9 µM (active)
AC50 [2]: 4.57 µM (active)

O=C(Nc1cc([N+](=O)[O-])ccc1Cl)C(Sc1ccccc1)c1ccccc1 (stereo not given)
IC50 (Fatty acid synthase [3]): 2.86 µM (active)
IC50 (Fatty acid synthase [4]): 4.75 µM (active)

COc1ccc(NC(=O)C2CCCN2S(=O)(=O)c2ccc3c(c2)CCC(=O)N3)cc1 (stereo not given)
EC50 [5]: 9.23 µM (active)

CC1CCCN(C(=O)CSCC(=O)Nc2nc(-c3cccs3)cs2)C1 (stereo not given)
EC50 [5]: 4.52 µM (active)

CCN(CC)C(=S)Sc1c(-c2ccccc2)c2cc(Cl)ccc2[nH]c1=O
IC50 (Protein skinhead-1): > 100 µM (inactive)
EC50 [6]: > 53 µM (inactive)

COc1cc(/C=N/n2cnnc2)ccc1OC(=O)c1cccnc1
IC50 [7]: 32 µM (active)
IC50 (Coagulation factor XII): > 50 µM (inactive)

Cc1[nH]c2ccccc2c1NC(=O)CN1CCN(c2cccc(C(F)(F)F)c2)CC1
EC50 [5]: 4.61 µM (active)

Cc1nc(SCC(=O)NCc2ccc3c(c2)OCO3)c(C#N)c2c1CCCC2
EC50 [5]: 5.41 µM (active)

O=C(OCc1ccc([N+](=O)[O-])cc1)C1CCN(S(=O)(=O)c2ccccc2)CC1
IC50 (Fatty acid synthase [3]): 9.2 µM (active)
IC50 (Fatty acid synthase [4]): 9.66 µM (active)

O=[N+]([O-])c1cccc(S(=O)(=O)Nc2ccc(Cc3ccncc3)cc2)c1
IC50 [8]: 10.5 µM (active)

CCN(CC)CCCCCCCCOC(=O)c1cc(OC)c(OC)c(OC)c1
IC50 [8]: 15.1 µM (active)

O=C(Nc1ccc(S(=O)(=O)Nc2nccs2)cc1)c1ccc(O)nc1
IC50 [9]: 7.11 µM (active)

CN(CC(=O)Nc1ccc(Cl)c(C(F)(F)F)c1)C(=O)C1CC(=O)N(c2ccc3c(c2)OCCO3)C1 (stereo not given)
IC50 (Fatty acid synthase [3]): 11.3 µM (active)
IC50 (Fatty acid synthase [4]): 10.4 µM (active)

CC(C)CN1CCC(Oc2cccc(C(=O)NCCc3ccccc3)c2)CC1
IC50 [8]: 10.7 µM (active)

O=C(c1cccc(Cl)c1)N(Cc1cccs1)C1CCS(=O)(=O)C1 (stereo not given)
IC50 (Protein skinhead-1): > 100 µM (inactive)

CCN(CC)P(=O)(c1n(CC)cc[n+]1CC)N(CC)CC
IC50 [9]: 3.98 µM (active)

O=C(NCc1ccco1)/C(=C\c1cccc([N+](=O)[O-])c1)NC(=O)c1ccco1
IC50 (Fatty acid synthase [3]): 8.51 µM (active)
IC50 (Fatty acid synthase [4]): 9.41 µM (active)

CC(C)CCC(C(=O)NC(C)c1ccccc1)C(=O)NC(C)c1ccccc1 (stereo not given)
IC50 [9]: 11.7 µM (active)

O=C(NCc1ccc2c(c1)OCO2)C1CC(c2ccc(Cl)cc2)=NO1 (stereo not given)
EC50 [5]: 0.496 µM (active)

CSC1=NSC2=NC(=O)/C(=C\c3c(C)[nH]c4ccc(C)cc34)C(=N)N12
IC50 (Coagulation factor XII): > 50 µM (inactive)

CCOC(=O)c1c(NC(=O)c2ccc(Br)o2)sc2c1CCCC2
IC50 (Coagulation factor XII): > 50 µM (inactive)

O=C(CCNC(=O)c1ccccc1)NN=Cc1ccc(Br)o1
IC50 [9]: 10.2 µM (active)

Cc1c(CN2CCCC(C(=O)Nc3cccc(-n4cccn4)c3)C2)cnn1C (stereo not given)
IC50 (Protein skinhead-1): > 100 µM (inactive)

CCCn1c(NCc2c[nH]c3ccccc23)nc2ccccc21
EC50 [5]: 5.89 µM (active)

CCOc1ccccc1NC(=O)C(CC(C)C)NC(=O)C1CCC(C)CC1 (stereo not given)
IC50 (Protein skinhead-1): > 100 µM (inactive)

CCOc1ccc2nc(O)c(C(c3nnnn3C3CCCCC3)N3CCN(C)CC3)cc2c1 (stereo not given)
IC50 (Coagulation factor XII): > 50 µM (inactive)

O=C(/C=C/c1cccc([N+](=O)[O-])c1)NCCSc1ccccc1
IC50 (Fatty acid synthase [3]): 5.62 µM (active)
IC50 (Fatty acid synthase [4]): 4.58 µM (active)

O=C(NCCc1ccccc1)c1ccc2c(=O)[nH]c3c(C(=O)NCC4CCCO4)sc(=S)n3c2c1 (stereo not given)
IC50 [8]: 16.6 µM (active)

CCC1Sc2ccccc2N(CC(=O)NCCC2=CCCCC2)C1=O (stereo not given)
EC50 [5]: 4.76 µM (active)

CCCCCOC(=O)c1ccc(N2C(=O)C3C4C=CC(C4)C3C2=O)cc1 (stereo not given)
IC50 (Fatty acid synthase [3]): 2.43 µM (active)
IC50 (Fatty acid synthase [4]): 2.93 µM (active)

COc1ccc(S(=O)(=O)NC2CC3CCC2C3)cc1Cl (stereo not given)
AC50 [1]: 3.41 µM (active)
